Target: T1, GRK7 (Homo sapiens, UniProt Q8WTQ7)
T1 construct: purchased Thermo Fisher Scientific (Life Technologies) SelectScreen
Assay: SelectScreen Z'LYTE
Format: biochemical
Method in brief: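 Compound tested in SelectScreen activity assays, Z'LYTE for CSF1R, CDK1/cyclin B and MAP2K6 and Adapta for CAMK1. ATP for CAMK1 was listed as 10, and Km app was used for CSF1R. Results are expressed in percent.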

T1 sequence (Q8WTQ7 whole entry): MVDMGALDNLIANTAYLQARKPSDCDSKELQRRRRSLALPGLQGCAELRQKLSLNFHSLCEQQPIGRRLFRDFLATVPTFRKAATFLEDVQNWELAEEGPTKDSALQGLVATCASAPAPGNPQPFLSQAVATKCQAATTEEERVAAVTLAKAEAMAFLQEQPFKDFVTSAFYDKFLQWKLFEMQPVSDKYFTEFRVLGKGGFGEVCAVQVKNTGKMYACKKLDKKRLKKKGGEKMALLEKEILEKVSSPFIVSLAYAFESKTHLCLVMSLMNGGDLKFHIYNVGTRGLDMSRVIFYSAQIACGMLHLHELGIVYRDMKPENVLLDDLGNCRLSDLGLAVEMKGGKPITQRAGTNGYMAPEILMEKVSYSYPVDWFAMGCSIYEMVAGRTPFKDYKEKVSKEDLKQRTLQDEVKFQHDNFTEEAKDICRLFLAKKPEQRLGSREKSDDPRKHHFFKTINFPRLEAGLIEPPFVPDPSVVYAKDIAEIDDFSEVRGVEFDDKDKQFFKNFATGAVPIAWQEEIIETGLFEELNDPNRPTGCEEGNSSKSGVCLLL

## CN(C(=O)CN1CCOCC1)c1ccc2sc3c(-c4cccc5c(=O)cc(N6CC7CCC(C6)O7)oc45)cccc3c2c1 [NU5455]
  inhibition at 1 µM: -3%
